# Measured values taken from patent publication US7829578B1, “Aromatic ketones and uses thereof” (Oregon Health & Science University, priority 2005, dated 2010).
# Read-outs that look alike come from different tables or passages of the source.
# Assays:
# Format in all cases: cell-based
# [1] = tested on: drug susceptible (D6) strain of Plasmodium falciparum; assay: In vitro antimalarial MSF (SyBrGreen I fluorescence) assay, D6 strain
# Protocol: (§1) Four different laboratory strains of P. falciparum were cultured in human erythrocytes by standard methods under a low oxygen atmosphere (5% O2, 5% CO2, 90% N2) in an environmental chamber. The culture medium was RPMI 1640, supplemented with 25 mM Hepes buffer, 25 mg/liter gentamicin sulfate, 45 mg/liter hypoxanthine, 10 mM glucose, 2 mM glutamine, and 0.5% Albumax II (complete medium). The parasites were maintained in fresh human erythrocytes suspended at a 2% hematocrit in complete medium at 37° C. Stock cultures were sub-passaged every 3 to 4 days by transfer of infected red cells to a flask containing complete medium and uninfected erythrocytes.
# (§2) In vitro antimalarial activity of the test compounds was assessed by a fluorescence-based method described previously (Smilkstein et al., 2004, Antimicrobial Agents and Chemotherapy, Vol. 48, pgs. 1803-1806) (reference format?). The studies were set up in triplicate in 96 well plates with two-fold dilutions of each test compound across the plate in a total volume of 100 μl and at a final red blood cell concentration of 2% (v/v). Stock solutions of each drug were prepared by dissolving in DMSO at 10 mM. […] In every case, an additional determination was performed to ensure bracketing of the IC50 value by at least an order of magnitude.
# (§3) Automated pipeting and dilution was carried out by a programmable Precision 2000 robotic station (Bio-Tek, Winooski, Vt.). An initial parasitemia of 0.2% was attained by addition of normal uninfected red cells to a stock culture of asynchronous parasite infected red cells (PRBC). The plates were incubated for 72 hrs at 37° C. in an atmosphere of 5% CO2, 5% O2, and 90% N2. After this period, the SyBrGreen I dye-detergent mixture (100 μl) was added and the plates were incubated at room temperature for an hour in the dark and then placed in a 96-well fluorescence plate reader (Gemini-EM, […]) for analysis with excitation and emission wavelength bands centered at 497 and 520 nm, respectively.
# [2] = tested on: Murine splenic lymphocytes; assay: MSLCs-concanavalin A induced proliferation (blastogenesis) cytotoxicity assay, Alamar Blue fluorescence; conditions: Table 2, 24-hr MSLCs-concanavalin A induced proliferation
# Protocol: *Data are the average of at least 3 independent experiments, each performed in triplicate with the aid of a Precision 2000 robotic pipeting station. IC50 values were determined by the MSF assay. […] MSLCs=Murine splenic lymphocytes. Cytotoxicity was determined using a 24-hr MSLCs-concanavalin A induced proliferation assay using the Alamar Blue fluorescence method. IVTI=in vitro therapeutic index calculated from the ratio of IC50 values based on the cytotoxicity observed in the blastogenesis assay and the antimalarial potency against the D6 strain of P. falciparum. NT=not tested.
# *Data are the average of at least 3 independent experiments, each performed in triplicate with the aid of a Precision 2000 robotic pipeting station. IC50 values were determined by the MSF assay (Smilkstein et al., AAC, 2004). MSLCs=Murine splenic lymphocytes. Cytotoxicity was determined using a 48-hr MSLCs-concanavalin A induced proliferation assay using the Alamar Blue fluorescence method. IVTI=in vitro therapeutic index calculated from the ratio of IC50 values of the cytotoxicity observed in the blastogenesis assay and antimalarial potency against the D6 strain of P. falciparum. NA=not applicable; ND=not determined.
# [3] = tested on: multi-drug resistant (Dd2) strain of Plasmodium falciparum; assay: In vitro antimalarial MSF (SyBrGreen I fluorescence) assay, Dd2 strain
# Protocol: as §1, §2, §3
# [4] = tested on: Murine splenic lymphocytes; assay: MSLCs-concanavalin A induced proliferation (blastogenesis) cytotoxicity assay, Alamar Blue fluorescence; conditions: Table 3, 48-hr MSLCs-concanavalin A induced proliferation
# [5] = Table 2, MSF assay, 72 hrs, average of at least 3 experiments, read-out: D6 IC50
# [6] = Table 2, 72 hrs, average of at least 3 experiments
# [7] = Mus musculus, Splenic lymphocyte
# [8] = Plasmodium falciparum, D6, Table 3, MSF assay, read-out: D6 IC50
# [9] = Plasmodium falciparum, D6, strain not given, read-out: IC50 value of parent compound used for comparison
# [10] = Plasmodium falciparum, D6, Table 4, MSF assay, read-out: D6 IC50
# [11] = Table 3, MSF assay, read-out: D6 IC50
"IC50 [1, 5] [nM]","IC50 [3, 6] [nM]",Structure (SMILES),IC50 [2] [nM],also measured
2200,9200,O=c1c2ccc(O)cc2[nH]c2cc(Cl)ccc12 [compound 14],14000,–
–,–,COc1ccc2c(=O)cc(C)[nH]c2c1 [compound 43],–,"IC50 [4, 7]: > 25000 nM; IC50 [1, 8]: 7000 nM; IC50 ([3]; Plasmodium falciparum, DD2, Table 3): 13700 nM"
0.16,0.17,O=c1c2ccc(Cl)cc2[nH]c2cc(OCCCCCCCC(F)(F)F)ccc12 [compound 28],> 25000,–
–,–,O=c1c2ccc(O)cc2oc2cc(O)ccc12 [compound 52],–,"IC50 ([1]; Plasmodium falciparum, D6, read-out: D6 IC50, nM): > 100000 nM"
–,–,"O=C1C=C(O)C(=O)c2ccccc21 [No. 47, 2-hydroxy-1,4-naphthoquinone, reference compound]",–,"IC50 [1, 9]: ~1800 nM"
–,–,Nc1ccc2c(=O)c3ccc(OCCCCCC(F)(F)F)cc3[nH]c2c1 [compound 34],> 25000,–
45,65,COc1ccc2[nH]c3cc(Cl)ccc3c(=O)c2c1 [compound 7],> 25000,–
32,35,O=C1C=C(OCCCCC(F)(F)F)C(=O)c2ccccc21 [compound 35],14000,–
36,49,O=c1c2ccccc2[nH]c2ccc(OCCCCCC(F)(F)F)cc12 [compound 25],> 25000,–
0.023,0.025,O=c1c2ccc(Cl)cc2[nH]c2cc(OCCCCCCCCCCC(F)(F)F)ccc12 [compound 30],> 25000,–
4000,3500,Cn1c2cc(Cl)ccc2c(=O)c2ccc(OCCCCC(F)(F)F)cc21 [compound 31],> 25000,–
–,–,O=C1C=C(CCCCCC(F)(F)F)C(=O)c2ccccc21 [compound 49],–,"IC50 [1, 10]: 823 nM"
46,40,O=c1c2ccc(O)cc2oc2cc(OCCCCCC(F)(F)F)ccc12 [compound 11],> 25000,–
–,–,COc1ccc2c(=O)c(CCCCCCCCCCC(F)(F)F)c(C)[nH]c2c1 [compound 45],–,"IC50 [4]: > 25000 nM; IC50 [1, 11]: 0.2 nM; IC50 ([3]; Table 3): 0.36 nM"
12,13,O=c1c2ccc(Cl)cc2[nH]c2cc(OCCCCCCl)ccc12 [compound 16],> 25000,–
190,260,O=c1c2ccc(Cl)cc2[nH]c2ccc(O)cc12 [compound 8],24000,–
7.8,102,CCN(CC)CCCC(C)Nc1ccnc2cc(Cl)ccc12 (racemic) [compound 36],3900,–
0.43,0.015,O=c1c2ccccc2[nH]c2cc(OCCCCCC(F)(F)F)ccc12 [compound 26],> 25000,–
–,–,"O=c1c2ccc(O)cc2[nH]c2cc(Cl)ccc12 [No. 14, 3-hydroxy-6-chloroacridone]",–,"IC50 [1, 9]: > 2200 nM"
11,68,C=CC1CN2CCC1CC2C(O)c1ccnc2ccc(OC)cc12 (centres unmarked) [compound 37],23000,–
–,–,O=C1C=C(OCCCCC(F)(F)F)C(=O)c2ccccc21 [compound 48],–,"IC50 [1, 10]: 51.1 nM"
2000,504,O=c1c2ccccc2[nH]c2cc(O)ccc12 [compound 6],> 25000,–
10,15,O=c1c2ccc(Cl)cc2[nH]c2ccc(OCCCCCC(F)(F)F)cc12 [compound 22],> 25000,–
–,–,COc1ccc2c(=O)c(C(=O)O)c[nH]c2c1 [compound 42],–,"IC50 [4, 7]: > 25000 nM; IC50 [1, 8]: > 2500 nM"
446,515,O=c1c2ccccc2[nH]c2c(OCCCCCC(F)(F)F)cccc12 [compound 27],> 25000,–
76,192,COc1ccc2c(=O)c3ccc(Cl)cc3[nH]c2c1 [compound 13],> 25000,–

"IC50 [1, 5] [nM]","IC50 [3, 6] [nM]",Structure (SMILES),IC50 [2] [nM],also measured
–,–,"COc1ccc2c(=O)cc(C)[nH]c2c1 [No. 43, 2-methyl-7-methoxy-4-(1H)-quinolone]",–,"IC50 [1, 9]: > 2500 nM"
27,54,O=C1c2ccc(OCCCCCC(F)(F)F)cc2C(=O)c2ccc(O)cc21 [compound 15],> 25000,–
18,42,COc1ccc2nc3cc(Cl)ccc3c(N)c2c1 [compound 9],450,–
0.06,0.07,O=c1c2ccc(Cl)cc2[nH]c2cc(OCCCCCC(F)(F)F)ccc12 [compound 21],> 25000,–
–,–,"O=c1c2ccc(O)cc2oc2cc(O)ccc12 [No. 52, 3,6-dihydroxyxanthone, reference compound]",–,"IC50 ([1]; Plasmodium falciparum, D6, read-out: IC50 value of parent compound used for comparison): > 100000 nM"
0.3,0.5,O=c1c2ccc(Cl)cc2[nH]c2cc(OCCCCC(F)(F)F)ccc12 [compound 18],> 25000,–
16000,18000,O=c1c2ccc(Cl)cc2oc2cc(OCCCCC(F)(F)F)ccc12 [compound 19],> 25000,–
2.2,3.5,O=c1c2ccc(Cl)cc2[nH]c2cc(OCCCCCCCCO)ccc12 [compound 29],> 25000,–
–,–,O=C1C=C(O)C(=O)c2ccccc21 [compound 47],–,"IC50 [1, 10]: 1800 nM"
0.5,0.3,O=c1c2ccccc2[nH]c2cc(OCCCCC(F)(F)F)ccc12 [compound 20],> 25000,–
9000,4400,O=c1c2ccccc2[nH]c2ccc(O)cc12 [compound 5],> 25000,–
2.9,10,Nc1c2ccc(Cl)cc2nc2cc(OCCCCCC(F)(F)F)ccc12 [compound 32],250,–
–,–,COc1ccc2c(=O)cc[nH]c2c1 [compound 40],–,"IC50 [4, 7]: > 25000 nM; IC50 [1, 8]: > 2500 nM"
1,1.2,O=c1c2ccc(Cl)cc2[nH]c2cc(OCCCC(F)(F)F)ccc12 [compound 17],> 25000,–
–,–,CCOC(=O)c1c[nH]c2cc(OC)ccc2c1=O [compound 41],–,"IC50 [4]: > 25000 nM; IC50 [1, 11]: 440 nM"
–,–,O=C1c2ccccc2Cc2ccc(OCCCCCC(F)(F)F)cc21 [compound 55],–,"IC50 [1, 10]: 510 nM"
–,–,CCOC(=O)c1c[nH]c2cc(OCCCCCC(F)(F)F)ccc2c1=O [compound 46],–,"IC50 [4]: > 25000 nM; IC50 [1, 11]: 1.2 nM; IC50 ([3]; Table 3): 1.2 nM"
3.2,5.8,O=c1c2ccc(OCCCCCC(F)(F)F)cc2[nH]c2cc([N+](=O)[O-])ccc12 [compound 33],> 25000,–
0.0015,–,O=c1c2ccc(Cl)cc2[nH]c2cc(OCCCCC(F)(C(F)(F)F)C(F)(F)F)ccc12 [compound 24],> 25000,–
5.9,8.8,OC(c1cc(C(F)(F)F)nc2c(C(F)(F)F)cccc12)C1CCCCN1 (racemic) [compound 38],4800,–
70,152,O=c1c2ccc(Cl)cc2[nH]c2ccc(OCCCCCBr)cc12 [compound 10],12000,–
0.02,0.02,O=c1c2ccc(Cl)cc2[nH]c2cc(OCCCCC(F)(F)C(F)(F)F)ccc12 [compound 23],> 25000,–
–,–,O=c1c2ccc(O)cc2oc2cc(OCCCCCC(F)(F)F)ccc12 [compound 53],–,"IC50 [1, 10]: 780 nM"
67,95,O=C1C=C(OCCCCCC(F)(F)F)C(=O)c2ccccc21 [compound 12],5600,–
–,–,O=C1c2ccccc2Cc2ccc(O)cc21 [compound 54],–,"IC50 [1, 10]: 8300 nM"

Structure (SMILES),"IC50 [1, 5] [nM]","IC50 [3, 6] [nM]",IC50 [2] [nM],also measured
CC1CCC2C(C)C(=O)OC3OC4(C)CCC1C32OO4 (centres unmarked) [compound 39],0.65,0.9,> 25000,–
